Test results published in patent US11400059B2, “Treatment of pain and/or pain related symptoms associated with dysmenorrhea” (ALYRA BIOTECH PTY LTD, priority 2017, dated 2022).

Tests used:
Human TLR2 = molecular target: T1, Human TLR2 (Homo sapiens, UniProt O60603); test: Human TLR antagonist screening, NF-κB SEAP reporter in HEK293 cells; type: cell-based; settings: antagonist mode, test article 1 μM, +HKLM 1 × 10^6 cells/mL, No Sample 6, Control− 1
T1 construct: expressed in transfected cells; host or cells: HEK293
T1 sequence (O60603 21-784): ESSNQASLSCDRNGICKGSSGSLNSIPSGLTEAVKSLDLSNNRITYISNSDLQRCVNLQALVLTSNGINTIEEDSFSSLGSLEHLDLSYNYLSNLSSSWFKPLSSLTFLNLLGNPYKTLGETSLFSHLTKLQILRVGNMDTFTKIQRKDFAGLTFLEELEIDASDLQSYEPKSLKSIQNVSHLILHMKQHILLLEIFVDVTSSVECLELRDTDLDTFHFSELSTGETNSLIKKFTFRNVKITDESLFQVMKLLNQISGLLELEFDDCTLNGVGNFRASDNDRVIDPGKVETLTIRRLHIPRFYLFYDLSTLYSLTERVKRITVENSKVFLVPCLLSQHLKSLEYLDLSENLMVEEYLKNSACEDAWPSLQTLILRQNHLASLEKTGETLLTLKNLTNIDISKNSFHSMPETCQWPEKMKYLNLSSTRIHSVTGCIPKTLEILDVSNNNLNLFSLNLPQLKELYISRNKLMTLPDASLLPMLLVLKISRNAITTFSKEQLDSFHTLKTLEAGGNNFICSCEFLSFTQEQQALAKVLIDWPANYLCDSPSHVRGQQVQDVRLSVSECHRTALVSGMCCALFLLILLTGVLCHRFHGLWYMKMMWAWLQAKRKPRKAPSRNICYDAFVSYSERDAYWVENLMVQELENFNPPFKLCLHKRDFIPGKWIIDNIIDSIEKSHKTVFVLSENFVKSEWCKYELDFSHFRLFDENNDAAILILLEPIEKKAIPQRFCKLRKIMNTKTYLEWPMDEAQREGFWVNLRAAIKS
Experimental: Toll-Like Receptor (TLR), NOD-Like Receptor (NLR) and C-Type Lectin Receptor (CLR) stimulation were tested by assessing NF-κB activation in HEK293 cells expressing a given TLR, NLR or CLR. The activity of the test articles was tested at one concentration and compared to control ligands. These steps were performed in triplicate. TLR2: […] Antagonist: 1×10^6 cells/mL: In a 96-well plate (200 μL total volume) containing the appropriate cells (50,000-75,000 cells/well), 20 μL of the test article or the positive control ligand was added to the wells. For the antagonist assay, the test article was incubated with the cells, at 37° C. with 5% CO2, for 30 minutes prior to the addition of the positive control ligand to the wells. The media added to the wells was designed for the detection of NF-κB induced SEAP expression. After a 16-24 hr incubation the optical density (OD) was read at 650 nm on a Molecular Devices SpectraMax 340PC absorbance detector. Fold induction (ratio of average induced value to average non-induced value) was determined for each TLR, NOD1, NOD2, Dectin-1a, Dectin-1b.

hTLR7 = molecular target: T2, hTLR7 (Homo sapiens, UniProt Q9NYK1); test: as above; type: cell-based; settings: antagonist mode, test article 1 μM, +CL307 10 ng/ml, No Sample 13, Control− 1
T2 construct: expressed in transfected cells; host or cells: HEK293
T2 sequence (Q9NYK1 27-1049): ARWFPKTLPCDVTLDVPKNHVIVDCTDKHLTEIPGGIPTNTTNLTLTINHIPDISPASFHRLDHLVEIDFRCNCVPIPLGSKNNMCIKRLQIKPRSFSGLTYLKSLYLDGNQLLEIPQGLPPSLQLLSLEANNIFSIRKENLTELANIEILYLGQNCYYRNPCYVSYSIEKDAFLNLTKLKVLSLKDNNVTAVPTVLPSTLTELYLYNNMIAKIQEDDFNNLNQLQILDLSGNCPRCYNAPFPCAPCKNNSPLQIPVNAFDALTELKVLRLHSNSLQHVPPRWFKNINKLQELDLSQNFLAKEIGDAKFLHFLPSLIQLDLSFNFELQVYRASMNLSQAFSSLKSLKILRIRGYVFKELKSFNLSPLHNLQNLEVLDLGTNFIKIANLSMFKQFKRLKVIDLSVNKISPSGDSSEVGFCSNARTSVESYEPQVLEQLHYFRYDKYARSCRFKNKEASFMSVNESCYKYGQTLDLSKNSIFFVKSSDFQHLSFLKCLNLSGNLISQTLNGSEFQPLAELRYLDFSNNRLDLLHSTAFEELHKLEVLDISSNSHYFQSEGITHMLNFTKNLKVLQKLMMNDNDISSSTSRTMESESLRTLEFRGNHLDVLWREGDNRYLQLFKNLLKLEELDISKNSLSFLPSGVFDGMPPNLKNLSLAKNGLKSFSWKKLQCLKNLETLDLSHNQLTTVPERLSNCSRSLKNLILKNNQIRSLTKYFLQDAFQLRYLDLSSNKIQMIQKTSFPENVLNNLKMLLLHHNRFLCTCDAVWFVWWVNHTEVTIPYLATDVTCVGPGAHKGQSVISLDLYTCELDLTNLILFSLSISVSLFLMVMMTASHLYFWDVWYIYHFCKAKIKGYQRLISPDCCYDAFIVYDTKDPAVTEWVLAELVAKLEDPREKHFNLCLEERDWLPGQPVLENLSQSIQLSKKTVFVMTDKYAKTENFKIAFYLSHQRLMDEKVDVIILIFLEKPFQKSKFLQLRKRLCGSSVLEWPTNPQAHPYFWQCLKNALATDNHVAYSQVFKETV
Experimental: Toll-Like Receptor (TLR), NOD-Like Receptor (NLR) and C-Type Lectin Receptor (CLR) stimulation were tested by assessing NF-κB activation in HEK293 cells expressing a given TLR, NLR or CLR. The activity of the test articles was tested at one concentration and compared to control ligands. These steps were performed in triplicate. hTLR7: CL307 at 1 μg/mL Antagonist: 10 ng/mL. In a 96-well plate (200 μL total volume) containing the appropriate cells (50,000-75,000 cells/well), 20 μL of the test article or the positive control ligand was added to the wells. For the antagonist assay, the test article was incubated with the cells, at 37° C. with 5% CO2, for 30 minutes prior to the addition of the positive control ligand to the wells. The media added to the wells was designed for the detection of NF-κB induced SEAP expression. […] Fold induction (ratio of average induced value to average non-induced value) was determined for each TLR, NOD1, NOD2, Dectin-1a, Dectin-1b.

Row | SMILES | Fold Induction (Human TLR2) | Fold Induction (Human TLR2; listed as Nor) | Fold Induction (hTLR7) | Fold Induction (hTLR7; listed as Nor) | Fold Induction (Human TLR2; listed as Ami) | Fold Induction (hTLR7; listed as Ami)
1 | CNCCC=C1c2ccccc2CCc2ccccc21 [Nortriptyline] | slight inhibitory effect | 5 | slight potentiating | 16 |  | 
2 | CN(C)CCC=C1c2ccccc2CCc2ccccc21 [Amitriptyline] | slight inhibitory effect |  | slight potentiating effect |  | 5 | 16
